Reference: paper PMC9863691, “A Novel Ferroptosis Inhibitor UAMC-3203, a Potential Treatment for Corneal Epithelial Wound” (Pharmaceutics, 2022)

Tests used:
[1] = tested on: alkali burn corneal wounds in ex vivo mouse eyes; test: corneal epithelial wound healing in ex vivo mouse eyes; set-up: species or system C57BL/6 mice; settings: for initial wound area: 0–2 h after wound
Description: For the study, C57BL/6 mice (Laboratory Animal Centre, the University of Eastern Finland) were euthanized, and the eyes were excised carefully with sterile forceps and micro-scissors to avoid any damage to the cornea. The eyes were transported in ice-cold Dulbecco’s modified Eagle’s Medium/Ham’s F12 (DMEM/F-12, Gibco, Life Technologies, Carlsbad, CA, USA). Then the eyes were adhered to a Petri dish with tissue adhesive (3M Vetbond, St. Paul, MN, USA). The corneal epithelial wound was produced by placing an alkali soaked (0.5% sodium hydroxide) Whitman filter paper of 2 mm diameter on the corneal surface for 2 min, as reported earlier. After removal of the filter paper, the remaining epithelium on the alkali-exposed surface was carefully removed with a micro scalpel, and the eyes were rinsed with PBS. Pre-warmed UAMC-3203 (10 mL of 10 nM, 1µM, 10 µM, and 50 µM solutions) was added in serum-free media that was supplemented with 1% penicillin-streptomycin solution ([…], 0.1 mg/mL streptomycin) (Corning, Ref 30-002-CI, Mediatech Inc., Discovery Boulevard, Manassas, VA, USA) to the Petri dishes so that the eyes were submerged. The serum-free medium without UAMC-3203 was used as the negative control, and the medium with 10% FBS was used as the positive control. The samples were cultivated under standard tissue culture conditions (37 °C, 5% CO2-atmosphere, and 95% relative humidity) for 48 h. In order to measure the wound area, images were taken with a Zeiss Axio Scope A1 microscope (Carl Zeiss Microscopy GmbH, Oberkochen, Germany) at different time points (initial (in less than 2 h after wound), 6, 24, 30, and 48 h). For imaging, the media was removed from the dish, and 0.1% fluorescein (2 µL) was added to the corneal surface, followed by PBS (10 µL) to rinse excess fluorescein. A clean tissue was then used to soak excess fluorescein and PBS, and the medium was added again to the dish after imaging. The medium was changed after 24 h. The wound area was quantified with Fiji software.

[2] = drug distribution in porcine cornea ex vivo; format: in vitro ADME
Description: Fresh porcine (a crossbreed between Matias and Yorkside) eyes were collected in the laboratory animal center at the University of Eastern Finland. The eyes were stored overnight in a keratinocyte serum-free medium (Gibco, Life Technologies Corporation, Grand Island, NY, USA) at +4 °C. The cornea was excised using an incision along the limbus, as described earlier.
The isolated corneas were rinsed with PBS and mounted in vertical Franz diffusion cells (PermeGear, Inc., Hellertown, PA, USA). Small magnetic stir bars were added to each receiver chamber, and 5 mL of 35 °C BSS Plus supplemented with 10 mM of 4-(2-hydroxyethyl)-1-piperazineethanesulfonic acid (HEPES; Lonza Bioscience, Walkersville, MD, USA) was added to the receiver compartment of each Frantz cell. The experiment was initiated by adding 50 µM UAMC-3203 in 10 mM HEPES-BSS Plus solution to the donor compartment. Samples of 500 µL from donor compartments and corneas were collected at the end of the experiments (at 5, 30, 60, and 120 min). The cornea samples were rinsed with PBS, the epithelial layer was scraped off from the corneas, and the remaining stroma–endothelium samples were cut to pieces. The experiments were carried out in triplicates. The samples were stored at −80 °C until liquid chromatography–tandem mass spectrometry (LC-MS/MS) analyses were performed.
The values of apparent partition coefficients (Kp) were calculated using drug concentrations on the tissue samples (at 120 min) and in the donor compartment buffer at time zero (ng/mL).
Quantitative analysis of UAMC-3203 was performed with the LC-MS/MS system that consisted of an Agilent 1290 series liquid chromatograph connected to an Agilent 6495 triple-quadruple mass spectrometer (Agilent Technologies, Inc., USA). The mobile phase consisted of 0.1% formic acid (Fisher chemical, Geel, Belgium), 1 mM ammonium formate (Honeywell, Fluka, Seelze, Germany) in Milli-Q-H2O (eluent A), and acetonitrile (LC-MS Chromasolv, Honeywell, Riedel-de Haen, Seelze, Germany) (eluent B). Gradient elution was used: 0.0 to 3.0 min: 25%→95% B, 3.0 to 3.5 min: 95% B, 3.5 to 3.6 min: 95%→25% B, 3.6 to 5.0 min 25% B. Solvent flow was 0.3 mL/min, and Poroshell 120 SB-C18 column (2.1 mm × 50 mm, 2.7 µm, Agilent Technologies, Inc., USA) was maintained at 60 °C. The injection volume was 2 µL. Nitrogen was used as a drying, nebulizer, and collision gas. The following conditions were used in the electrospray ion source: positive ion mode, sheath gas flow rate 11 L/min at 350 °C, drying gas flow rate 16 L/min at 200 °C, nebulizer gas pressure adjusted to 25 psi, capillary voltage 3500 V (ESI+), fragmentor voltage 380 V, dwell time 150 ms and cell accelerator voltage 5 V. The data were analyzed with Agilent Mass Hunter Quantitative Analyzed software (vB.09.00, build 9.0.647.0, Agilent Technologies, CA, USA). The precursor and fragment ions are presented in Supplementary Table S1.

O=S(=O)(NCCN1CCNCC1)c1ccc(NC2CCCCC2)c(NCc2ccccc2)c1 [UAMC-3203]
initial wound area ([1]; 10 nM): 2.59 ± 0.27 mm^2
wound area at 48 h ([1]; 10 nM): 0.22 ± 0.16 mm^2
wound area compared to negative control ([1]; 10 nM, p = 0.03): significantly lower wound area at 48 h
wound healing ([1]; 10 nM–10 µM): > 85%
wound area compared to negative control ([1]; 1 µM): no notable difference at any time point
initial wound area ([1]; 1 µM): 2.46 ± 0.42 mm^2
wound area at 48 h ([1]; 1 µM): 0.35 ± 0.3 mm^2
initial wound area ([1]; 10 µM): 2.44 ± 0.52 mm^2
wound area at 48 h ([1]; 10 µM): 0.10 ± 0.21 mm^2
wound area compared to negative control ([1]; 10 µM, p ≤ 0.005): significant difference in wound area at 24–48 h
change of corneal epithelial wound area ([1]; 50 µM): did not cause any changes in the corneal epithelial wound area
optimal concentration for wound healing ([1]; ex vivo): 10 µM
Kp epithelium/donor relative to Kp stroma/epithelium [2]: ≈ 52 times
levels in epithelium higher than in stroma–endothelium ([2]; 50 µM donor): 1–2 orders of magnitude
level in the cornea at 5 min ([2]; 50 µM donor, 5 min): ≈ 20 µM
Kp epithelium/donor ([2]; 50 µM donor, 120 min): 1.95 ± 0.45
Kp stroma/epithelium ([2]; 50 µM donor, 120 min): 0.04 ± 0.02
epithelium concentration relative to stroma at 120 min ([2]; 120 min): ≈ 28 times
concentration in corneal epithelium relative to corneal stroma ([2]; over the time points): 12–38 fold
